# Measured values from patent publication US20180160709A1, “bitter taste removing preparation and method” (priority 2016, published 2018).
# Test: In vitro membrane dialysis: bonding between bitter ingredients and proteins
# Format: binding
# Details: among whey protein, milk powder, chicken ovalbumin, bovine serum albumin
# Experimental: The possible hydrophobic bonding between bitter ingredients RO and protein molecules can be explored by using membrane dialysis:
# Dialysis bag was purchased from Beijing Scientan science and technology company, molecular weight range 8-14 KD. The bag was immersed in 10 mL water in a beaker. The pore size on the membrane inhibited the protein molecules from penetrating.
# Into the first group (control samples) bags added in the sophora flavescens, gentian, and scutellaria decoctions and Berberine in aqueous solution respectively, 0.2 mL each, and diluted with water to 2 mL total volume each. To simulate the Chinese medicine, in the 4 medicine decoctions used as sample and control sample, there was no additive and without any post processing.
# In the second group of 4×5 bags, four different protein powders were added respectively: whey protein, milk powder, chicken ovalbumin, bovine serum albumin, 5 bags for each protein, 400 mg powder in each bag. As the last step of sample preparation, 2 mL of 1/10 diluted decoction solutions were added into the protein bags, 4 different protein bags for each medicine decoction to add in. Into the remaining set of 4 different protein bags from above, 2 ml water was added instead without any medicine decoction. […]
# Scheduled sampling from the 10 mL water outside the bag, and followed by HPLC quantitative analysis. […]
substance,measurement,value
"bovine serum albumin: protein powder, 400 mg per dialysis bag",encapsulation or hydrophobic bonding ability,strongest
